Patent US20250090537A1, “ANTIVIRAL COMPOUNDS AND METHODS OF MAKING AND USING THE SAME” (Gilead Sciences, Inc., priority 2023, published 2025)

How the values were obtained:
[1] = tested on: RSV strain A2; assay: RSV Cellomics assay for RSV A2 antiviral activity (EC50-RSV-Hep2-96-Cellomics); assay type: cell-based; conditions: human respiratory syncytial virus, HEp-2, 72 h; Hep2 cells infected with RSV strain A2, MOI=0.05, 3 days; Example B1
Procedure: Example B1: RSV Cellomics Assay for RSV A2 Antiviral Activity (EC50-RSV-Hep2-96-Cellomics) 8×10^3 Hep2 cells are seeded into 96 well plates in 100 μL of media (DMEM supplemented with GlutaMAX, 10% FBS and Pen/Strep) and briefly spun at 50×g for 1 minute to attach cells. Cells were further allowed to attach with overnight incubation at 37° C.+5% CO2. The following day, the media was aspirated and 100 μL of fresh DMEM media containing 2% FBS was added. A three-fold dilution series of compounds of interest are then added to the plate using the Tecan D300e dispenser and the plate is normalized to the well with the highest volume of DMSO. The cells are next infected by adding 100 μL of media containing RSV strain A2 at an MOI=0.05 and the plates incubated for 3 days at 37° C.+5% CO2. Following the incubation, the media is removed, and the cells are washed once with 250 μL PBS and fixed with 250 μL ice-cold 100% methanol for 10 minutes at 4° C. The methanol is then removed and the plates air dried for 5 minutes and then washed once with 250 μL PBS to remove any residual methanol. The wells are then blocked 60 µL/well of BlockAid (B10710, Thermo-Fisher) for 1 hour at RT on rocker at which point the blocking buffer is carefully aspirated. Primary antibody against the RSV F protein (MAB 858-1) is then diluted 1:2000 in SuperBlock (37515, Thermo Fisher) and 50 μL of the primary antibody solution is added to each well. The plates are incubated at room temperature for 1 hour with gentle agitation and then washed with 250 μL of PBS-Tween 3 times. A goat anti-mouse AlexaFluor 647 conjugated secondary antibody (Sigma, A21235) is then diluted 1:2000 and Hoescht 33342 (H3570) at 1:1000 in SuperBlock and 50 μL added to the wells for 1 hour at 37° C. After incubation the antibody solution is aspirated, and the wells are then washed with 250 μL of PBS-Tween 3 times. To keep cells from drying out, 100 μL of PBS is added to each well and the plates are sealed with black plate seal. Fluorescence at the 647 nm wavelength is measured using a Cellomics CellInsight CX7 machine. Compound activity is determined as a percentage of the % positive cells (or average intensity) compared to DMSO treated RSV infected well controls following subtraction of uninfected controls. The EC50 values are then calculated using nonlinear regression analysis in GraphPad Prism.

[2] = MT4 CC50 cytotoxicity (CC50-MT4-384); assay type: cell-based; conditions: human; uninfected MT-4 cells, 4-5 days, Cell-Titer Glo; Example G
Procedure: Example G. HEp-2 and MT4 CC50
Cytotoxicity of the compounds was determined in uninfected cells using the cell viability reagent in a similar fashion as described before for other cell types (Cihlar et al., ANTIMICROB AGENTS CHEMOTHER. 2008, 52(2):655-65). HEp-2 (1.5×10^3 cells/well) and MT-4 (2×10^3 cells/well) cells were plated in 384-well plates and incubated with the appropriate medium containing 3-fold serially diluted compound ranging from 15 nM to 100,000 nM. Cells were cultured for 4-5 days at 37° C. Following the incubation, the cells were allowed to equilibrate to 25° C., and cell viability was determined by adding Cell-Titer Glo viability reagent. The mixture was incubated for 10 min, and the luminescence signal was quantified using an Envision plate reader. Untreated cell and cells treated at 2 μM puromycin (Sigma, St. Louis, MO) serve as 100% and 0% cell viability control, respectively. The percent of cell viability was calculated for each tested compound concentration relative to the 0% and 100% controls and the CC50 value was determined by non-linear regression as a compound concentration reducing the cell viability by 50%.

SMILES	EC50 [1] [µM]	CC50 [2] [µM]
N#C[C@]1(CO)O[C@@H](c2ccc3c(N)ncnn23)[C@H](O)[C@@H]1O [Compound 0, (2R,3S,4R,5S)-5-(4-aminopyrrolo[1,2-f][1,2,4]triazin-7-yl)-3,4-dihydroxy-2-(hydroxymethyl)tetrahydrofuran-2-carbonitrile, reference compound]	9.75	–
CCOC(=O)O[C@H]1[C@H](c2ccc3c(N)ncnn23)O[C@](C#N)(COC(C)=O)[C@H]1OC(=O)OCC [Compound 1, ((2R,3S,4S,5S)-5-(4-aminopyrrolo[2,1-f][1,2,4]triazin-7-yl)-2-cyano-3,4-bis((ethoxycarbonyl)oxy)tetrahydrofuran-2-yl)methyl acetate]	19.2	> 50
CCOC(=O)O[C@H]1[C@H](c2ccc3c(N)ncnn23)O[C@](C#N)(COC(=O)C(C)C)[C@H]1OC(=O)OCC [Compound 3, ((2R,3S,4S,5S)-5-(4-aminopyrrolo[2,1-f][1,2,4]triazin-7-yl)-2-cyano-3,4-bis((ethoxycarbonyl)oxy)tetrahydrofuran-2-yl)methyl isobutyrate]	36.6	> 50
CCOC(=O)O[C@H]1[C@H](c2ccc3c(N)ncnn23)O[C@](C#N)(COC(=O)CC(C)(C)C)[C@H]1OC(=O)OCC [Compound 4, ((2R,3S,4S,5S)-5-(4-aminopyrrolo[2,1-f][1,2,4]triazin-7-yl)-2-cyano-3,4-bis((ethoxycarbonyl)oxy)tetrahydrofuran-2-yl)methyl 3,3-dimethylbutanoate]	37.5	> 50
